# Tests used:
# [1] = system: leiomyoma smooth muscle cells (LSMC); experiment: Realtime PCR mRNA expression in treated LSMC; type: cell-based, human
# Experimental: (§1) Isolation and Culture of Leiomyoma and Myometrial Smooth Muscle Cells. […] Only untreated tissues were used for isolation of LSMC and MSMC. […] LSMC and MSMC were cultured in 6-well plates at an approximate density of 10^6 cells/well in DMEM-supplemented media containing 10% FBS. After reaching visual confluence, the cells were washed in serum-free media and incubated for 24 hrs under serum-free, phenol red-free condition (Chegini, N et al. Mol Hum Reprod, 2002, 8:1071-8).
# (§2) Quantitative RealTime PCR. Realtime PCR was utilized for verification of 10 differentially expressed and regulated genes identified in leiomyoma and myometrium as well as LSMC and MSMC from untreated and GnRHa-treated cohorts. The selection of these genes was based not only on their expression values (up or downregulation), but classification and biological functions important to leiomyoma growth and regression, regulation by ovarian steroids, GnRHa and TGF-β. They are IL-11, CITED2, Nur77, EGR3, TGIF, TIEG, p27, p57, GAS-1 and GPRK5 representing cytokines, transcription factors, cell cycle regulators and signal transduction.
# (§3) Determination of TGF-β1 on global gene expression in LSMC and MSMC. All the materials utilized for this study including isolation of leiomyoma and myometrial cells are identical to those described in detail above. To determine the effect of TGF-β1 on global gene expression in LSMC and MSMC, the cells were cultured in 6-well plates at approximate density of 10^6 cells/well in DMEM-supplemented media containing 10% FBS. […] The cells were then treated with 2.5 ng/ml of TGF-β1 (R & D System, Minneapolis, […].) for 2, 6 and 12 hours. […] The cells were washed and then treated with TGF-β1 (2.5 ng/ml) for 2 hours. Parallel experiments using untreated cells were used as controls including an additional control for TGF-β type II receptor antisense and sense experiments.
# (§4) Total cellular RNA was isolated from LSMC- and MSMC-treated and untreated controls and subjected to microarray analysis. To maintain standard and allow for comparative analysis, the GeneChips used in this study were utilized, simultaneously processed and their gene expression values were subjected to global normalization and transformation. Following these unsupervised assessments the coefficient of variation was calculated for each probe set across all the chips used in this study, and the selected gene expression values of this study were independently subjected to supervised learning including R programming analysis and ANOVA with false discovery rate selected at p<0.001 (Moustakas, A. Immunol Lett, 2002, 82:85-91; Verrecchia, F. et al. J Biol Chem, 2001, 276:17058-17062). The genes identified in these cohorts were analyzed for functional annotation and visualized using Database for Annotation, Visualization, and Integrated Discovery (DAVID) software with integrated GoCharts. Following the analysis, we selected 12 of the differentially expressed and regulated genes, including 10 identified and validated in leiomyoma and myometrium from untreated and GnRHa-treated cohorts, as well as LSMC and MSMC treated in vitro with GnRHa, for validation in response to TGF-β-time dependent action using Realtime PCR. They include IL-11, EGR3, CITED2, TIEG, TGIF, Nur77, p27, p57, GAS-1 and GPRK5. In addition, the expression of Runx1 and Runx2, transcription factors that interact with TGF-β receptor signaling pathways (Zavadil, J. et al. Proc Natl Acad Sci USA, 2001, 98:6686-6691), was validated in LSMC and MSMC as well as in leiomyoma and myometrium from GnRHa-treated and untreated cohorts. Detail description of the materials and methods for Realtime PCR as well as data analysis is provided in Chegini, N. et al. J Soc Gynecol Investig, 2003, 10:161-71.
# (§5) Isolation and Culture of Leiomyoma and Myometrial Smooth Muscle Cells. Leiomyoma and myometrial smooth muscle cells (LSMC and MSMC) were isolated and cultured as previously described (Chegini, N. et al. Mol Hum Reprod, 2002, 8:1071-1078). […]
# [2] = system: myometrial smooth muscle cells (MSMC); experiment: Realtime PCR mRNA expression in treated MSMC; type: cell-based, human
# Experimental: as §1, §2, §3, §4, §5
# [3] = U0126 20 μM 2 hrs, then GnRHa 0.1 μM 2 hrs
# [4] = U0126 20 μM 2 hrs, then TGF-β1 2.5 ng/ml 2 hrs
# [5] = TGF-β1 2.5 ng/ml, 2, 6 and 12 hours
# [6] = TGF-β1 2.5 ng/ml, 2, 6 and 12 hrs
molecule,measurement,setting,value
N#CC(=C(/N)Sc1ccccc1N)/C(C#N)=C(\N)Sc1ccccc1N [U0126],GnRHa-mediated action on CCN2 expression in LSMC,[1]; [3],altered
same,GnRHa-mediated action on CCN3 expression in LSMC,[1]; [3],altered
same,GnRHa-mediated action on CCN4 expression in LSMC,[1]; [3],altered
same,GnRHa-mediated action on S100A4 expression in LSMC,[1]; [3],altered
same,GnRHa-mediated action on fibulin-1C expression in LSMC,[1]; [3],altered
same,expression of FMOD in LSMC treated with GnRHa,"[1]; U0126 20 μM 2 hrs, then GnRHa 2 hrs, compared to U0126-treated cells",increased
same,TGF-β-mediated CCN4 expression in LSMC,[1]; [4],inhibited
same,TGF-β-mediated S100A4 expression in LSMC,[1]; [4],inhibited
same,TGF-β-mediated action on CCN2 in LSMC,[1]; [4],limited effect
same,TGF-β-mediated action on FMOD in LSMC,[1]; [4],increased
same,TGF-β-mediated fibulin-1C expression in LSMC,[1]; [4],inhibited
same,basal CCN2 mRNA expression in LSMC,[1]; U0126 20 μM pretreatment 2 hrs,altered
same,basal CCN3 mRNA expression in LSMC,[1]; U0126 20 μM pretreatment 2 hrs,altered
same,basal CCN4 mRNA expression in LSMC,[1]; U0126 20 μM pretreatment 2 hrs,altered
same,basal S100A4 mRNA expression in LSMC,[1]; U0126 20 μM pretreatment 2 hrs,altered
same,basal expression of FMOD in LSMC,[1]; U0126 20 μM pretreatment 2 hrs,increased
same,basal fibulin-1C mRNA expression in LSMC,[1]; U0126 20 μM pretreatment 2 hrs,altered
same,GnRHa-mediated action on CCN2 expression in MSMC,[2]; [3],altered
same,GnRHa-mediated action on CCN3 expression in MSMC,[2]; [3],altered
same,GnRHa-mediated action on CCN4 expression in MSMC,[2]; [3],altered
same,GnRHa-mediated action on S100A4 expression in MSMC,[2]; [3],altered
same,GnRHa-mediated action on fibulin-1C expression in MSMC,[2]; [3],altered
same,expression of FMOD in MSMC treated with GnRHa,"[2]; U0126 20 μM 2 hrs, then GnRHa 2 hrs, compared to untreated control",increased
same,TGF-β-mediated CCN3 expression in MSMC,[2]; [4],inhibited
same,TGF-β-mediated CCN4 expression in MSMC,[2]; [4],inhibited
same,TGF-β-mediated S100A4 expression in MSMC,[2]; [4],inhibited
same,TGF-β-mediated action on CCN2 in MSMC,[2]; [4],limited effect
same,TGF-β-mediated action on FMOD in MSMC,[2]; [4],inhibiting
same,TGF-β-mediated fibulin-1C expression in MSMC,[2]; [4],inhibited
same,basal CCN2 mRNA expression in MSMC,[2]; U0126 20 μM pretreatment 2 hrs,altered
same,basal CCN3 mRNA expression in MSMC,[2]; U0126 20 μM pretreatment 2 hrs,altered
same,basal CCN4 mRNA expression in MSMC,[2]; U0126 20 μM pretreatment 2 hrs,altered
same,basal S100A4 mRNA expression in MSMC,[2]; U0126 20 μM pretreatment 2 hrs,altered
same,basal expression of FMOD in MSMC,[2]; U0126 20 μM pretreatment 2 hrs,increased
same,basal fibulin-1C mRNA expression in MSMC,[2]; U0126 20 μM pretreatment 2 hrs,altered
"TGF-β1: human recombinant TGF-β1 (R&D System), used at 2.5 ng/ml",Gas1 expression in LSMC,[1]; [5],suppressed
same,Nur77 expression in LSMC,[1]; [5],transiently increased
same,TGIF expression in LSMC,[1]; [5],transiently increased
same,TIEG expression in LSMC,[1]; [5],transiently increased
same,p27Kip1 expression in LSMC,[1]; [5],suppressed
same,p57Kip2 expression in LSMC,[1]; [5],suppressed
same,CCN3 mRNA expression in LSMC,[1]; [6],inhibiting
same,S100A4 mRNA expression in LSMC,[1]; [6],moderately inhibiting
same,fibulin-1C mRNA expression in LSMC,[1]; [6],moderately inhibiting
same,increase of CCN4 mRNA expression in LSMC,[1]; [6],two fold
same,FMOD expression in LSMC,"[1]; TGF-β1 2.5 ng/ml, inhibition after 12 hrs","either no effect, or inhibited"
same,GAS1 expression in MSMC,[2]; [5],suppression
same,Nur77 expression in MSMC,[2]; [5],transiently increased
same,TGIF expression in MSMC,[2]; [5],transiently increased
same,TIEG expression in MSMC,[2]; [5],transiently increased
same,p27Kip1 expression in MSMC,[2]; [5],biphasic fashion
same,p57Kip2 expression in MSMC,[2]; [5],biphasic fashion
same,CCN3 mRNA expression in MSMC,[2]; [6],inhibiting
same,S100A4 mRNA expression in MSMC,[2]; [6],moderately inhibiting
same,fibulin-1C mRNA expression in MSMC,[2]; [6],increasing
same,increase of CCN4 mRNA expression in MSMC,[2]; [6],two fold
same,increase in FMOD expression in MSMC,"[2]; TGF-β1 2.5 ng/ml, declined to control levels",5-10 fold
same,FMOD expression in MSMC,"[2]; TGF-β1 2.5 ng/ml, gradual reduction to control levels after 12 hrs",significantly increased
